From patent publication US6413953B1, “Pt(IV) antitumor agent” (AnorMED Inc., priority 1999, dated 2002)
pIC50: −log10 of the molar value. Read-outs that look alike come from different tables or passages of the source. One block for each molecule: values may come before it.

What was measured:
41M = assay: Cell proliferation IC50, human cancer cell lines in culture; type: cell-based; conditions: 41M cell line; for (IC50-Pt(IV)/IC50-Pt(II)): vs cis-amminedichloro(2-methylpyridine)platinum(II); for pIC50: read-out: IC50 (50% decrease in cell proliferation)
Protocol: (§1) Compounds were tested against human cancer cell lines grown in cell culture according to established procedures (described by Holford, et al., British J. Cancer 1998 77(3) 366-373).

CH1 = assay: as above; type: cell-based; conditions: CH1 cell line; for (IC50-Pt(IV)/IC50-Pt(II)): vs cis-amminedichloro(2-methylpyridine)platinum(II); for pIC50: read-out: IC50 (50% decrease in cell proliferation)
Protocol: as §1

CH1R = assay: as above; type: cell-based; conditions: for (IC50-Pt(IV)/IC50-Pt(II)): CH1R cell line, vs cis-amminedichloro(2-methylpyridine)platinum(II); for resistance factor: CH1R vs CH1, in brackets; for pIC50: read-out: IC50 (50% decrease in cell proliferation), CH1R cisplatin-resistant cell line
Protocol: as §1

A2780 = assay: as above; type: cell-based; conditions: A2780 cell line; for (IC50-Pt(IV)/IC50-Pt(II)): vs cis-amminedichloro(2-methylpyridine)platinum(II); for pIC50: read-out: IC50 (50% decrease in cell proliferation)
Protocol: as §1

2780R = assay: as above; type: cell-based; conditions: for resistance factor: 2780R vs A2780, in brackets; for (IC50-Pt(IV)/IC50-Pt(II)): A2780R cell line, vs cis-amminedichloro(2-methylpyridine)platinum(II); for pIC50: read-out: IC50 (50% decrease in cell proliferation), 2780R cisplatin-resistant cell line
Protocol: as §1

41MR = assay: as above; type: cell-based; conditions: for (IC50-Pt(IV)/IC50-Pt(II)): 41MR cell line, vs cis-amminedichloro(2-methylpyridine)platinum(II); for resistance factor: 41MR vs 41M, in brackets; for pIC50: read-out: IC50 (50% decrease in cell proliferation), 41MR cisplatin-resistant cell line
Protocol: as §1

[1] = Aqueous solubility at ambient conditions; type: physicochemical; conditions: for Aqueous Solubility / Ratio to Solubility of bis-butyrato-ammine-(cyclohexylamine)dichloro platinum (IV) / Ratio to Solubility of cis-ammine(2-methylpyridine)Dichloroplatinum (II) / Ratio to Solubility of cisplatin: ambient conditions
[2] = test system: CH1 tumor containing xenografts; assay: In vivo growth delay in CH1 tumor xenografts; conditions: administered at maximum tolerated dose
Text: This is in contrast to the growth delay of 0.6 days, achieved with compound E (FIG. 1).

[3] = background statement; cited from earlier work
[4] = solubility ratio to cis-amminedichloro(2-methylpyridine)platinum(II)

- (IC50-Pt(IV)/IC50-Pt(II)) (41M): 1.8
- pIC50 (41M): 5.00
- (IC50-Pt(IV)/IC50-Pt(II)) (CH1): 1.5
- pIC50 (CH1): 5.47
- (IC50-Pt(IV)/IC50-Pt(II)) (CH1R): 3.5
- pIC50 (CH1R): 5.13
- (IC50-Pt(IV)/IC50-Pt(II)) (A2780): 1.8
- pIC50 (A2780): 5.35
- (IC50-Pt(IV)/IC50-Pt(II)) (2780R): 3.0
- pIC50 (2780R): 4.44
- (IC50-Pt(IV)/IC50-Pt(II)) (41MR): 3.2
- pIC50 (41MR): 4.72
- Aqueous Solubility [1]: ˜5 mg/ml
- Ratio to Solubility of bis-butyrato-ammine-(cyclohexylamine)dichloro platinum (IV) [1]: 25
- Ratio to Solubility of cis-ammine(2-methylpyridine)Dichloroplatinum (II) [1]: 7.1
- Ratio to Solubility of cisplatin [1]: 5
- (SolPt(IV)/SolPt(II)) [1, 4]: 7.1
Molecule: Cc1cccc[n+]1[Pt-2]([NH3+])([OH])([OH])([Cl])[Cl] [Compound B]
- resistance factor (CH1R): (2.2)
- resistance factor (2780R): (8)
- resistance factor (41MR): (1.9)

Molecule: N.N.[Cl][Pt][Cl] [cisplatin, [PtCl2(NH3)2], reference compound]
- pIC50 (41M): 6.59
- pIC50 (CH1): 6.96
- resistance factor (CH1R): (6.5)
- pIC50 (CH1R): 6.15
- pIC50 (A2780): 6.48
- resistance factor (2780R): (15.7)
- pIC50 (2780R): 5.28
- resistance factor (41MR): (4.6)
- pIC50 (41MR): 5.92
- growth delay [2]: 34 days

Molecule: CC(=O)[O][Pt]([OH])([Cl])[O]C(C)=O.Cc1ccccn1.N [Compound C]
- (IC50-Pt(IV)/IC50-Pt(II)) (41M): 4.8
- pIC50 (41M): 4.57
- (IC50-Pt(IV)/IC50-Pt(II)) (CH1): 3.9
- pIC50 (CH1): 5.07
- (IC50-Pt(IV)/IC50-Pt(II)) (CH1R): 8.1
- resistance factor (CH1R): (1.8)
- pIC50 (CH1R): 4.77
- (IC50-Pt(IV)/IC50-Pt(II)) (A2780): 3.4
- pIC50 (A2780): 5.07
- resistance factor (2780R): (5.2)
- (IC50-Pt(IV)/IC50-Pt(II)) (2780R): 3.8
- pIC50 (2780R): 4.35
- (IC50-Pt(IV)/IC50-Pt(II)) (41MR): 4.3
- resistance factor (41MR): (0.96)
- pIC50 (41MR): 4.59
- Aqueous Solubility [1]: 20 mg/mL
- Ratio to Solubility of bis-butyrato-ammine-(cyclohexylamine)dichloro platinum (IV) [1]: 100
- Ratio to Solubility of cis-ammine(2-methylpyridine)Dichloroplatinum (II) [1]: 28.6
- Ratio to Solubility of cisplatin [1]: 20
- (SolPt(IV)/SolPt(II)) [1, 4]: 28.6

Molecule: CC(=O)[O][Pt]([OH])([Cl])[O]C(C)=O.Cc1ccccn1.N [Compound E]
- (IC50-Pt(IV)/IC50-Pt(II)) (41M): 13.9
- pIC50 (41M): 4.11
- (IC50-Pt(IV)/IC50-Pt(II)) (CH1): 8.2
- pIC50 (CH1): 4.74
- (IC50-Pt(IV)/IC50-Pt(II)) (CH1R): 21.9
- resistance factor (CH1R): (2.6)
- pIC50 (CH1R): 4.34
- (IC50-Pt(IV)/IC50-Pt(II)) (A2780): 4.2
- pIC50 (A2780): 4.98
- resistance factor (2780R): (5.9)
- (IC50-Pt(IV)/IC50-Pt(II)) (2780R): 5.2
- pIC50 (2780R): 4.21
- (IC50-Pt(IV)/IC50-Pt(II)) (41MR): 13
- resistance factor (41MR): (1)
- pIC50 (41MR): 4.11
- growth delay [2]: 0.6 days
- (SolPt(IV)/SolPt(II)) [1]: 21.4
- Aqueous Solubility [1]: 15 mg/mL
- Ratio to Solubility of bis-butyrato-ammine-(cyclohexylamine)dichloro platinum (IV) [1]: 75
- Ratio to Solubility of cis-ammine(2-methylpyridine)Dichloroplatinum (II) [1]: 21.4
- Ratio to Solubility of cisplatin [1]: 15

Molecule: CC(=O)[O][Pt]([NH2])([Cl])([Cl])([NH]C1CCCCC1)[O]C(C)=O [Compound F, bis-acetatoammine(cyclohexylamine)dichloroplatinum(IV), reference compound]
- pIC50 (41M): 6.30
- resistance factor (CH1R): (4)
- pIC50 (CH1R): 6.40
- pIC50 (A2780): 6.40
- resistance factor (2780R): (4.6)
- pIC50 (2780R): 5.74
- resistance factor (41MR): (1.2)
- pIC50 (41MR): 6.22
- Aqueous Solubility [1]: <1 mg/mL
- Ratio to Solubility of bis-butyrato-ammine-(cyclohexylamine)dichloro platinum (IV) [1]: <5
- Ratio to Solubility of cis-ammine(2-methylpyridine)Dichloroplatinum (II) [1]: <1.4
- Ratio to Solubility of cisplatin [1]: <1

Molecule: [NH2][Pt]1([NH2])[O]C(=O)C2(CCC2)C(=O)[O]1 [carboplatin, diammine[1,1-cyclobutanedicarboxylato (2-)]-O,O′-platinum(II), reference compound]
- pIC50 (41M): 5.48
- pIC50 (CH1): 5.89
- resistance factor (CH1R): (4.5)
- pIC50 (CH1R): 5.22
- pIC50 (A2780): 5.74
- resistance factor (2780R): (14.4)
- pIC50 (2780R): 4.59
- resistance factor (41MR): (2.7)
- pIC50 (41MR): 5.06
- Aqueous Solubility [3]: 14 mg/mL
- Aqueous Solubility [1]: 14 mg/mL
- Ratio to Solubility of bis-butyrato-ammine-(cyclohexylamine)dichloro platinum (IV) [1]: 70
- Ratio to Solubility of cis-ammine(2-methylpyridine)Dichloroplatinum (II) [1]: 20
- Ratio to Solubility of cisplatin [1]: 14

Molecule: CCCC(=O)[O][Pt]([NH2])([Cl])([Cl])([NH]C1CCCCC1)[O]C(=O)CCC [Compound G, bis-butyratoammine(cyclohexylamine)dichloroplatinum(IV), reference compound]
- pIC50 (41M): 7.14
- pIC50 (CH1): 8.18
- resistance factor (CH1R): (3.7)
- pIC50 (CH1R): 7.62
- resistance factor (41MR): (0.67)
- pIC50 (41MR): 7.32

Molecule: CC(=O)[O][Pt]([Cl])([O]C(C)=O)[O]C(C)=O.Cc1ccccn1.N [Compound D]
- pIC50 (41M): < 4.00
- pIC50 (CH1): 4.34
- resistance factor (CH1R): (1.9)
- pIC50 (CH1R): 4.06
- pIC50 (A2780): 4.33
- pIC50 (2780R): < 4.00
- pIC50 (41MR): < 4.00
- Aqueous Solubility [1]: 80 mg/mL

Molecule: ammine(chloro)trihydroxo(2-methylpyridine)platinum(IV) [Compound A]
- (IC50-Pt(IV)/IC50-Pt(II)) (41M): 4.5
- pIC50 (41M): 4.60
- (IC50-Pt(IV)/IC50-Pt(II)) (CH1): 2.7
- pIC50 (CH1): 5.22
- (IC50-Pt(IV)/IC50-Pt(II)) (CH1R): 5.7
- resistance factor (CH1R): (2)
- pIC50 (CH1R): 4.92
- (IC50-Pt(IV)/IC50-Pt(II)) (A2780): 3.8
- pIC50 (A2780): 5.02
- resistance factor (2780R): (4.3)
- (IC50-Pt(IV)/IC50-Pt(II)) (2780R): 3.4
- pIC50 (2780R): 4.39
- (IC50-Pt(IV)/IC50-Pt(II)) (41MR): 7.5
- resistance factor (41MR): (1.8)
- pIC50 (41MR): 4.35
- growth delay [2]: 32.8 days

Molecule: Cc1ccccn1.N.[Cl-].[Cl-].[Pt+2] [cis-ammine(2-methylpyridine)dichloroplatinum(II), reference compound]
- pIC50 (41M): 5.25
- pIC50 (CH1): 5.66
- resistance factor (CH1R): (1)
- pIC50 (CH1R): 5.68
- pIC50 (A2780): 5.60
- resistance factor (2780R): (4.8)
- pIC50 (2780R): 4.92
- resistance factor (41MR): (1.1)
- pIC50 (41MR): 5.22
- Aqueous Solubility [1]: 0.7 mg/mL
- Ratio to Solubility of bis-butyrato-ammine-(cyclohexylamine)dichloro platinum (IV) [1]: 3.5
- Ratio to Solubility of cis-ammine(2-methylpyridine)Dichloroplatinum (II) [1]: 1
- Ratio to Solubility of cisplatin [1]: 0.7
